Test results: PMC3062192 (Bioorganic & medicinal chemistry letters, 2011)

Legend:
[1] = target: Cdk5/p25 (Homo sapiens, UniProt Q00535); assay: Cdk5/p25 radiometric kinase inhibition assay; format: biochemical
[2] = test system: phosphorylated tau at Serine 235 (Ptau235) in primary neurons; assay: inhibition of tau phosphorylation; format: cell-based; conditions: rat primary neurons, 4 h at 37 °C, Ptau235 immunoblot

Sequence of Cdk5/p25 (Q00535 whole entry): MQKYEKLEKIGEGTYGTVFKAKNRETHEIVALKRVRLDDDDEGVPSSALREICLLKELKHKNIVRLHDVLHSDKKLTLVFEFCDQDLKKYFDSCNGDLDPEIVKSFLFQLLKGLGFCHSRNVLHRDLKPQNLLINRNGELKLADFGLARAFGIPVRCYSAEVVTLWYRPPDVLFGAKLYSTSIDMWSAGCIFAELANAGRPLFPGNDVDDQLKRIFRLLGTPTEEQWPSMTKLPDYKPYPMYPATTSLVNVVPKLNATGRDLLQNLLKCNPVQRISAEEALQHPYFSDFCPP
Sequence of Cdk5/p25 (Q15078 99-307 partner limits assumed): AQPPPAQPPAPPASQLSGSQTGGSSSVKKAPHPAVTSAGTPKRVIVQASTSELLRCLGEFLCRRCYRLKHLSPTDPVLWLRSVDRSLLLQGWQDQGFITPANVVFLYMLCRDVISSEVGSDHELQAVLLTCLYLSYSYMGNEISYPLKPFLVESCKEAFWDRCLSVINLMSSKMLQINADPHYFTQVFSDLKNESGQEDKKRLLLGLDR

Structure (SMILES)	Cdk5/p25 inhibitory activity (in words) ([1]; radiometric assay)	inhibition of tau phosphorylation (in words) [2]	binding ΔΔG ([1]; calculated from the listed activities for the pair 26 and 28) [kcal/mol]
CNc1nc(Nc2cccnc2)sc1C(=O)c1ccccc1F [Compound 43]	abolished inhibitory activity	–	–
Nc1nc(Nc2cccnc2)sc1C(=O)c1ccccc1F [Compound 26]	–	dose-dependent inhibition of tau phosphorylation	-2.6
